Measurements taken from patent US11390616B2 (BRISTOL-MYERS SQUIBB COMPANY, priority 2015, dated 2022).

biological target: T1, human APJ receptor (Homo sapiens, UniProt P35414); assay: Intracellular cAMP accumulation assay (APJ hcAMP, HTRF); type: cell-based; details: HEK293 cells stably expressing human APJ receptor; inhibition of forskolin-mediated cAMP production; read-out: APJ cAMP Potency range
T1 construct: expressed in transfected cells; host or cells: HEK293
T1 sequence (P35414 1-380): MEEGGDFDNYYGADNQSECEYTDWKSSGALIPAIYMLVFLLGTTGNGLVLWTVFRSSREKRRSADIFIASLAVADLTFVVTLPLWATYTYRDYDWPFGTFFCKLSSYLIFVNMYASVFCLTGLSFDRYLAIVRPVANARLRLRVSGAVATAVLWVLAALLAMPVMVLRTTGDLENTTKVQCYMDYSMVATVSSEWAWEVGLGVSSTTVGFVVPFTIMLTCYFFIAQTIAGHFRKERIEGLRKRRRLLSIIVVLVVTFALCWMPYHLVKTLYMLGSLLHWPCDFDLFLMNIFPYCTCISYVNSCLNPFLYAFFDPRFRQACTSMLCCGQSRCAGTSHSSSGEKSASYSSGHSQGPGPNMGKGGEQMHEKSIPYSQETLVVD
Procedure: Intracellular cAMP Accumulation Assay
HEK293 cells stably expressing human APJ receptor were used to assess the activity of compounds. Cultured cells were detached and resuspended in the cAMP Homogeneous Time-Resolved Fluorescence (HTRF) assay buffer (Cisbio cat; #62AM4PEJ). The assay was performed in 384-well assay plates (Perkin-Elmer; cat #6008289) according to assay protocol provided by the manufacturer. Serial dilutions of a compound together with assay buffer containing […] IBMX and 2 μM forskolin were added to each well containing 5,000 cells and incubated for 30 minutes at room temperature. Subsequently, cAMP D2 reagent was added in the lysis buffer followed by the EuK antibody (Cisbio; cat #62AM4PEJ) and incubated for 60 min. The fluorescence emission ratio was measured using fluorometer. The intracellular cAMP concentrations (compound-stimulated inhibition of forskolin-mediated cAMP production) were calculated by extrapolation from a standard curve using known cAMP concentrations. The EC50 values were obtained by fitting the data to a sigmoidal concentration-response curve with variable slope. The maximal achievable inhibition of forskolin-induced cAMP levels (Ymax) for each compound was expressed as relative percentage of inhibition attained using pyroglutamated apelin-13 ((Pyr1)apelin-13) peptide, which was set to 100%.
The examples disclosed below were tested in the APJ in vitro assays described above and were found having human APJ cyclic AMP (hcAMP) activity. The EC50 value of each compound is presented at the end of the example description.
The biological activity of the exemplified compounds of this invention determined by the assay described above is shown at the end of each example.

| SMILES | EC50 |
| --- | --- |
| CCCCc1nc(O)c(Cc2ccc(NC(C)=O)cc2)c(=O)n1-c1c(OC)cccc1OC [Example 9, N-(4-{[2-butyl-1-(2,6-dimethoxyphenyl)-4-hydroxy-6-oxo-1,6-dihydropyrimidin-5-yl]methyl}phenyl)acetamide] | 10 to 100 nM |
| CCCCc1nc(O)c(Cc2cnn(-c3ccc(C)cc3)c2)c(=O)n1-c1c(OC)cccc1OC [Example 25, 2-butyl-3-(2,6-dimethoxyphenyl)-6-hydroxy-5-{[1-(4-methylphenyl)-1H-pyrazol-4-yl]methyl}-3,4-dihydropyrimidin-4-one] | 0.01 to 10 nM |
| CCCCc1nc(=O)c(Cc2ccc(-c3ccncc3C)cc2)c(O)n1[C@@H](CC)c1cccc(C#N)c1 [Example 98, 3-[(1S)-1-(2-butyl-6-hydroxy-5-{[4-(3-methylpyridin-4-yl)phenyl]methyl}-4-oxo-1,4-dihydropyrimidin-1-yl)propyl]benzonitrile] | 0.01 to 10 nM |
| COc1cccc(OC)c1-n1c(CCC2CC2)nc(O)c(Cc2ccc(-n3ccccc3=O)cc2)c1=O [Example 41, 2-(2-cyclopropylethyl)-3-(2,6-dimethoxyphenyl)-6-hydroxy-5-{[4-(2-oxo-1,2-dihydropyridin-1-yl)phenyl]methyl}-3,4-dihydropyrimidin-4-one] | 0.01 to 10 nM |
| COc1cccc(OC)c1-n1c(C2CCCC2)nc(O)c(Cc2ccc(-n3cc(F)ccc3=O)cc2)c1=O [Example 51, 2-cyclopentyl-3-(2,6-dimethoxyphenyl)-5-{[4-(5-fluoro-2-oxo-1,2-dihydropyridin-1-yl)phenyl]methyl}-6-hydroxy-3,4-dihydropyrimidin-4-one] | 0.01 to 10 nM |
| CCOCc1nc(=O)c(Cc2ccc(-c3ccnc(F)c3C)cc2)c(O)n1[C@@H](COC)c1cc(F)cc(F)c1 [Example 126, 1-[(1R)-1-(3,5-difluorophenyl)-2-methoxyethyl]-2-(ethoxymethyl)-5-{[4-(2-fluoro-3-methylpyridin-4-yl)phenyl]methyl}-6-hydroxy-1,4-dihydropyrimidin-4-one] | 0.01 to 10 nM |
| CCc1cccc(CC)c1-n1c(-c2ccn(C)n2)nc(=O)c(Cc2ccc(-c3ccc(F)cc3C(N)=O)cc2F)c1O [Example 89, 4′-{[1-(2,6-diethylphenyl)-6-hydroxy-2-(1-methyl-1H-pyrazol-3-yl)-4-oxo-1,4-dihydropyrimidin-5-yl]methyl}-3′,4-difluoro-[1,1′-biphenyl]-2-carboxamide] | 0.01 to 10 nM |
| COc1cccc(OC)c1-n1c(COC(C)C)nc(O)c(Cc2ccc(-n3cc(F)ccc3=O)cc2)c1=O [Example 59, 3-(2,6-dimethoxyphenyl)-5-{[4-(5-fluoro-2-oxo-1,2-dihydropyridin-1-yl)phenyl]methyl}-6-hydroxy-2-[(propan-2-yloxy)methyl]-3,4-dihydropyrimidin-4-one] | 0.01 to 10 nM |
| COc1cccc(OC)c1-n1c(CCC(C)C)nc(O)c(Cc2ccc(NC(C)=O)cc2)c1=O [Example 16, N-(4-{[1-(2,6-dimethoxyphenyl)-4-hydroxy-2-(3-methylbutyl)-6-oxo-1,6-dihydropyrimidin-5-yl]methyl}phenyl)acetamide] | 10 to 100 nM |
| CCCCc1nc(=O)c(Cc2cccc(-c3ccc(F)nc3C)c2)c(O)n1[C@@H](CC)c1cc(F)cc(F)c1 [Example 130, 2-butyl-1-[(1S)-1-(3,5-difluorophenyl)propyl]-5-{[3-(6-fluoro-2-methylpyridin-3-yl)phenyl]methyl}-6-hydroxy-1,4-dihydropyrimidin-4-one] | 0.01 to 10 nM |
| CCn1ccc(-c2nc(=O)c(Cc3ccc(-c4ccnc(F)c4C)cc3)c(O)n2-c2c(OC)cccc2OC)n1 [Example 63, 1-(2,6-dimethoxyphenyl)-2-(1-ethyl-1H-pyrazol-3-yl)-5-{[4-(2-fluoro-3-methylpyridin-4-yl)phenyl]methyl}-6-hydroxy-1,4-dihydropyrimidin-4-one] | 0.01 to 10 nM |
| CCOCc1nc(O)c(Cc2coc(-c3ccc(Cl)cc3)n2)c(=O)n1-c1c(OC)cccc1OC [Example 33, 5-{[2-(4-chlorophenyl)-1,3-oxazol-4-yl]methyl}-3-(2,6-dimethoxyphenyl)-2-(ethoxymethyl)-6-hydroxy-3,4-dihydropyrimidin-4-one] | 10 to 100 nM |
| CCCCc1nc(O)c(Cc2ccc(-c3ccccc3)cc2)c(=O)n1-c1c(OC)cccc1OC [Example 45, 5-({[1,1′-biphenyl]-4-yl}methyl)-2-butyl-3-(2,6-dimethoxyphenyl)-6-hydroxy-3,4-dihydropyrimidin-4-one] | 0.01 to 10 nM |
| CCOCc1nc(O)c(Cc2ccn(-c3ccc(Cl)cc3)n2)c(=O)n1-c1c(OC)cccc1OC [Example 31, 5-{[1-(4-chlorophenyl)-1H-pyrazol-3-yl]methyl}-3-(2,6-dimethoxyphenyl)-2-(ethoxymethyl)-6-hydroxy-3,4-dihydropyrimidin-4-one] | 10 to 100 nM |
| CCc1cccc(CC)c1-n1c(-c2ccn(CC(C)C)n2)nc(=O)c(Cc2ccc(-c3cccn(C)c3=O)c(F)c2)c1O [Example 90, 1-(2,6-diethylphenyl)-5-{[3-fluoro-4-(1-methyl-2-oxo-1,2-dihydropyridin-3-yl)phenyl]methyl}-6-hydroxy-2-[1-(2-methylpropyl)-1H-pyrazol-3-yl]-1,4-dihydropyrimidin-4-one] | 100 to 300 nM |
| CCCCc1nc(=O)c(Cc2ccc(-n3cc(Cl)ccc3=O)cc2)c(O)n1[C@@H](CC)c1cccc(C#N)c1 [Example 100, 3-[(1S)-1-(2-butyl-5-{[4-(5-chloro-2-oxo-1,2-dihydropyridin-1-yl)phenyl]methyl}-6-hydroxy-4-oxo-1-4-dihydropyrimidin-1-yl)propyl]benzonitrile] | 0.01 to 10 nM |
| CCCCc1nc(=O)c(Cc2ccc(-c3ccnc(F)c3C)cc2)c(O)n1[C@@H](CC)c1cccc(C#N)c1 [Example 99, 3-[(1S)-1-(2-butyl-5-{[4-(2-fluoro-3-methylpyridin-4-yl)phenyl]methyl}-6-hydroxy-4-oxo-1,4-dihydropyrimidin-1-yl)propyl]benzonitrile] | 0.01 to 10 nM |
| CCc1cccc(CC)c1-n1c(-c2nc(C)cs2)nc(=O)c(Cc2ccc(-c3ccc(F)cc3C(N)=O)c(F)c2)c1O [Example 82, 4′-{[1-(2,6-diethylphenyl)-6-hydroxy-2-(4-methyl-1,3-thiazol-2-yl)-4-oxo-1,4-dihydropyrimidin-5-yl]methyl}-2′,4-difluoro-[1,1′-biphenyl]-2-carboxamide] | 0.01 to 10 nM |
| CCOCc1nc(=O)c(Cc2ccc(-c3ccc(F)nc3C)cc2)c(O)n1[C@@H](COC)c1cc(F)cc(F)c1 [Example 124, 1-[(1R)-1-(3,5-difluorophenyl)-2-methoxyethyl]-2-(ethoxymethyl)-5-{[4-(6-fluoro-2-methylpyridin-3-yl)phenyl]methyl}-6-hydroxy-1,4-dihydropyrimidin-4-one] | 0.01 to 10 nM |
| CCOCc1nc(=O)c(Cc2ccc(-c3ccncc3C)cc2)c(O)n1[C@@H](COC)c1cc(F)cc(F)c1 [Example 122, 1-[(1R)-1-(3,5-difluorophenyl)-2-methoxyethyl]-2-(ethoxymethyl)-6-hydroxy-5-{[4-(3-methylpyridin-4-yl)phenyl]methyl}-1,4-dihydropyrimidin-4-one] | 0.01 to 10 nM |
| CCc1cccc(CC)c1-n1c(-c2ccn(C)n2)nc(=O)c(Cc2ccc(-c3cccn(C)c3=O)cc2F)c1O [Example 88, 1-(2,6-diethylphenyl)-5-{[2-fluoro-4-(1-methyl-2-oxo-1,2-dihydropyridin-3-yl)phenyl]methyl}-6-hydroxy-2-(1-methyl-1H-pyrazol-3-yl)-1,4-dihydropyrimidin-4-one] | 0.01 to 10 nM |
| CCc1cccc(CC)c1-n1c(-c2ccn(C)n2)nc(=O)c(Cc2ccc(-c3ccc(F)nc3C)c(F)c2)c1O [Example 69, 1-(2,6-diethylphenyl)-5-{[3-fluoro-4-(6-fluoro-2-methylpyridin-3-yl)phenyl]methyl}-6-hydroxy-2-(1-methyl-1H-pyrazol-3-yl)-1,4-dihydropyrimidin-4-one] | 0.01 to 10 nM |
| CCCCc1nc(O)c(Cc2ccc(OC)cc2)c(=O)n1-c1ccccc1OC [Example 3, 2-butyl-6-hydroxy-3-(2-methoxyphenyl)-5-[(4-methoxyphenyl)methyl]-3,4-dihydropyrimidin-4-one] | 100 to 300 nM |
| CC[C@@H](c1cc(F)cc(F)c1)n1c(COC(C)C)nc(=O)c(Cc2ccc(-c3ccncc3C)cc2)c1O [Example 114, 1-[(1S)-1-(3,5-difluorophenyl)propyl]-6-hydroxy-5-{[4-(3-methylpyridin-4-yl)phenyl]methyl}-2-[(propan-2-yloxy)methyl]-1,4-dihydropyrimidin-4-one] | 0.01 to 10 nM |
